Assay results from patent publication US20260062422A1 (Halda Therapeutics OpCo, Inc., priority 2022, published 2026).

Tested on: T47D cells
Assay: Cellular growth inhibition assay for T47D cells, CellTiter-Glo
Format: cell-based, human
Conditions: 72 hours treatment, CellTiter-Glo 2.0 cell viability
Experimental: T47D cells were purchased from American Type Cell Culture (ATCC Cat #HTB-133) and then seeded on poly-D-lysine coated, black clear-bottom 384-well plates at 3000/well in 25 μL Dulbecco's Modified Eagle Medium (DMEM) supplemented with 10% w/w Fetal bovine serum (FBS), 0.2 units/mL recombinant human insulin (Gibco Cat #12585014), and 1% w/w Pen-Strep. Pen-Strep is a commercially available mixture of penicillin G and streptomycin, which is used in mammalian cell culture media to prevent bacterial contamination. Dulbecco's Modified Eagle Medium (DMEM) supplemented with 10% w/w fetal bovine serum (FBS), 0.2 units/mL recombinant human insulin, and 1% w/w Pen-Strep is herein referred to as Treatment Medium. Following seeding of cells in the plates, the plates were spun at 300×g for 30 seconds, then equilibrated to room temperature for 30 minutes, and then deposited in a humidified tissue culture incubator maintained at 37° C. with 5% CO2.
At 24 hours after seeding of the cells, dilutions of test compound were prepared in DMSO and dissolved in Treatment Medium, to achieve a final DMSO concentration of 0.5% w/w, thereby providing the Test Compound Solution. A 25 μL aliquot of the Test Compound Solution was added to cells in the well plates. An equal volume of a solution containing DMSO and Treatment Medium was used as a negative control. Following treatment of cells with Test Compound Solution or said equal volume of a solution containing DMSO and Treatment Medium, the plates were spun at 300×g for 30 seconds, and then left in an incubator for 72 hours.
At the end of the treatment duration, cell viability was quantified with CellTiter-Glo 2.0 reagent (Promega Cat #G9243). For this purpose, plates were equilibrated to room temperature for 30 minutes, and then 25 μL of CellTiter-Glo 2.0 reagent was added to cells in the plate wells. Plates were then agitated on a shaker for two minutes at 500 rpm and subsequently incubated at room temperature for 10 minutes. Following incubation, the plates were spun at 3000×g for 30 seconds, then sealed with an optical adhesive cover, and luminescence readings were measured with an EnVision Plate Reader (Perkin Elmer).
Data was normalized using zero luminescence for baseline. A four-parameter non-linear regression curve fit was applied to dose-response data in GraphPad Prism data analysis software to determine the half-maximal growth inhibitory concentration (GI50) for each test compound.

SMILES | GI50 (Homo sapiens, T47D, 72 h) [nM] | GI50 [nM]
Cc1sc2c(c1C)C(c1ccc(C3CC3C3CC4(CCN(c5cnc(C(=O)N[C@H]6C(C)(C)[C@H](Oc7ccc(C#N)c(Cl)c7)C6(C)C)cn5)CC4)C3)cc1)=N[C@@H](C)c1nnc(C)n1-2 (stereo partly drawn) [Compound I-536] | – | > 3000
Cc1sc2c(c1C)C(c1ccc(C3CC3C3CC4(CCN(c5ncc(C(=O)N[C@H]6C(C)(C)[C@H](Oc7ccc(C#N)c(Cl)c7)C6(C)C)cn5)CC4)C3)cc1)=N[C@@H](C)c1nnc(C)n1-2 (stereo partly drawn) [Compound I-537] | > 3000 | –
Cc1sc2c(c1C)C(c1ccc(C3CC3C3CC4(CCN(c5cnc(C(=O)N[C@H]6C(C)(C)[C@H](Oc7ccc(C#N)c(Cl)c7)C6(C)C)cn5)CC4)C3)cc1)=NC(Cc1ncco1)c1nnc(C)n1-2 (stereo partly drawn) [Compound I-538] | – | > 3000
Cc1sc2c(c1C)C(c1ccc(C3CC3C3CC4(CCN(c5cnc(C(=O)N[C@H]6C(C)(C)[C@H](Oc7ccc(C#N)c(Cl)c7)C6(C)C)cn5)CC4)C3)cc1)=NC(Cc1ncco1)c1nnc(C)n1-2 (stereo partly drawn) [Compound I-539] | – | > 3000
Cc1sc2c(c1C)C(c1ccc(C3CC3C3CC4(CCN(c5cnc(C(=O)N[C@H]6C(C)(C)[C@H](Oc7ccc(C#N)c(Cl)c7)C6(C)C)cn5)CC4)C3)cc1)=NC(Cc1ncco1)c1nnc(C)n1-2 (stereo partly drawn) [Compound I-540] | – | < 500
Cc1sc2c(c1C)C(c1ccc(C3CC3C3CC4(CCN(c5cnc(C(=O)N[C@H]6C(C)(C)[C@H](Oc7ccc(C#N)c(Cl)c7)C6(C)C)cn5)CC4)C3)cc1)=NC(Cc1ncco1)c1nnc(C)n1-2 (stereo partly drawn) [Compound I-541] | – | < 500
Cc1sc2c(c1C)C(c1ccc(OC3(C)CC4(CCN(c5ncc(C(=O)N[C@H]6C(C)(C)[C@H](Oc7ccc(C#N)c(Cl)c7)C6(C)C)cn5)CC4)C3)cc1)=N[C@@H](Cc1ncco1)c1nnc(C)n1-2 [Compound I-542] | > 3000 | –
Cc1sc2c(c1C)C(c1ccc(N3CC(C4CCC(Cc5ncc(C(=O)N[C@H]6C(C)(C)[C@H](Oc7ccc(C#N)c(Cl)c7)C6(C)C)cn5)CC4)C3)cc1)=N[C@@H](Cc1ncco1)c1nnc(C)n1-2 (stereo partly drawn) [Compound I-543] | – | > 3000
Cc1sc2c(c1C)C(c1ccc(N3CC(C4CCC(Cc5ncc(C(=O)N[C@H]6C(C)(C)[C@H](Oc7ccc(C#N)c(Cl)c7)C6(C)C)cn5)CC4)C3)cc1)=N[C@@H](Cc1ncco1)c1nnc(C)n1-2 (stereo partly drawn) [Compound I-544] | – | 500 to 1500
Cc1sc2c(c1C)C(c1ccc(OC3CC4(C3)CC3(CCN(c5ccc(C(=O)N[C@H]6C(C)(C)[C@H](Oc7ccc(C#N)c(Cl)c7)C6(C)C)nc5)CC3)C4)cc1)=N[C@@H](Cc1ncco1)c1nnc(C)n1-2 [Compound I-546] | > 3000 | –
Cc1sc2c(c1C)C(c1ccc(OC3CC4(C3)CC3(CCN(c5ccc(C(=O)N[C@H]6C(C)(C)[C@H](Oc7ccc(C#N)c(Cl)c7)C6(C)C)nc5)CC3)C4)cc1)=N[C@@H](C)c1nnc(C)n1-2 [Compound I-549] | > 3000 | –
Cc1sc2c(c1C)C(c1ccc(C3CC3C3CC4(CCN(c5ncc(C(=O)N[C@H]6C(C)(C)[C@H](Oc7ccc(C#N)c(Cl)c7)C6(C)C)cn5)CC4)C3)cc1)=N[C@@H](C)c1nnc(C)n1-2 (stereo partly drawn) [Compound I-556] | – | > 3000
Cc1sc2c(c1C)C(c1ccc(C#CC3CC(Cc4ncc(C(=O)N[C@H]5C(C)(C)[C@H](Oc6ccc(C#N)c(Cl)c6)C5(C)C)cn4)C3)cc1)=NC(Cc1ncco1)c1nnc(C)n1-2 (stereo partly drawn) [Compound I-559] | – | 500 to 1500

Next, values leading:

GI50 (Homo sapiens, T47D, 72 h) [nM] | GI50 [nM] | SMILES
> 3000 | – | Cc1sc2c(c1C)C(c1ccc(N3CC(CC4CCN(c5cnc(C(=O)N[C@H]6C(C)(C)[C@H](Oc7ccc(C#N)c(Cl)c7)C6(C)C)cn5)CC4)C3)cc1)=NC1(CC1)c1nnc(C)n1-2 [Compound I-526]
> 3000 | – | Cc1sc2c(c1C)C(c1ccc(N3CC(CC4CN(c5cnc(C(=O)N[C@H]6C(C)(C)[C@H](Oc7ccc(C#N)c(Cl)c7)C6(C)C)cn5)C4)C3)cc1)=NC1(CC1)c1nnc(C)n1-2 [Compound I-527]
> 3000 | – | Cc1sc2c(c1C)C(c1ccc(N3CC(C4CCN(c5cnc(C(=O)N[C@H]6C(C)(C)[C@H](Oc7ccc(C#N)c(Cl)c7)C6(C)C)cn5)CC4)C3)cc1)=NC1(CC1)c1nnc(C)n1-2 [Compound I-528]
> 3000 | – | Cc1sc2c(c1C)C(c1ccc(N3CC(CC4CCN(c5ccc(C(=O)N[C@H]6C(C)(C)[C@H](Oc7ccc(C#N)c(Cl)c7)C6(C)C)nc5)CC4)C3)cc1)=NC1(CC1)c1nnc(C)n1-2 [Compound I-529]
> 3000 | – | Cc1sc2c(c1C)C(c1ccc(OC3CC4(C3)CC3(CCN(c5ccc(C(=O)N[C@H]6C(C)(C)[C@H](Oc7ccc(C#N)c(Cl)c7)C6(C)C)nc5)CC3)C4)cc1)=NC1(CC1)c1nnc(C)n1-2 [Compound I-530]
> 3000 | – | Cc1sc2c(c1C)C(c1ccc(N3CC(CC4CN(c5ccc(C(=O)N[C@H]6C(C)(C)[C@H](Oc7ccc(C#N)c(Cl)c7)C6(C)C)nc5)C4)C3)cc1)=NC1(CC1)c1nnc(C)n1-2 [Compound I-531]
> 3000 | – | Cc1sc2c(c1C)C(c1ccc(N3CC(CC4CN(c5ccc(C(=O)N[C@H]6C(C)(C)[C@H](Oc7ccc(C#N)c(Cl)c7)C6(C)C)cn5)C4)C3)cc1)=NC1(CC1)c1nnc(C)n1-2 [Compound I-532]
1500 to 3000 | – | Cc1sc2c(c1C)C(c1ccc(N3CC(C4CCN(c5ccc(C(=O)N[C@H]6C(C)(C)[C@H](Oc7ccc(C#N)c(Cl)c7)C6(C)C)nc5)CC4)C3)cc1)=NC1(CC1)c1nnc(C)n1-2 [Compound I-533]
> 3000 | – | Cc1sc2c(c1C)C(c1ccc(N3CC(C4CCN(c5ccc(C(=O)N[C@H]6C(C)(C)[C@H](Oc7ccc(C#N)c(Cl)c7)C6(C)C)cn5)CC4)C3)cc1)=NC1(CC1)c1nnc(C)n1-2 [Compound I-534]
> 3000 | – | Cc1sc2c(c1C)C(c1ccc(C3CC3C3CC4(CCN(c5cnc(C(=O)N[C@H]6C(C)(C)[C@H](Oc7ccc(C#N)c(Cl)c7)C6(C)C)cn5)CC4)C3)cc1)=N[C@@H](C)c1nnc(C)n1-2 (stereo partly drawn) [Compound I-535]
500 to 1500 | – | Cc1sc2c(c1C)C(c1ccc(ON3CC4(C3)CC3(CCN(c5cnc(C(=O)N[C@H]6C(C)(C)[C@H](Oc7ccc(C#N)c(Cl)c7)C6(C)C)cn5)CC3)C4)cc1)=N[C@@H](Cc1ncco1)c1nnc(C)n1-2 [Compound I-545]
< 500 | – | Cc1sc2c(c1C)C(c1ccc(N3CC(C4CCN(c5ccc(C(=O)N[C@H]6C(C)(C)[C@H](Oc7ccc(C#N)c(Cl)c7)C6(C)C)cn5)CC4)C3)cc1)=N[C@@H](C)c1nnc(C)n1-2 [Compound I-551]
1500 to 3000 | – | Cc1sc2c(c1C)C(c1ccc(N3CC(C4CCN(c5ccc(C(=O)N[C@H]6C(C)(C)[C@H](Oc7ccc(C#N)c(Cl)c7)C6(C)C)nc5)CC4)C3)cc1)=N[C@@H](C)c1nnc(C)n1-2 [Compound I-552]
< 500 | – | Cc1sc2c(c1C)C(c1ccc(CC3CC4(CCN(c5ccc(C(=O)N[C@H]6C(C)(C)[C@H](Oc7ccc(C#N)c(Cl)c7)C6(C)C)nc5)CC4)C3)cc1)=N[C@@H](Cc1ncco1)c1nnc(C)n1-2 [Compound I-553]
< 500 | – | Cc1sc2c(c1C)C(c1ccc(CC3CCN(c4ncc(C(=O)N[C@H]5C(C)(C)[C@H](Oc6ccc(C#N)c(Cl)c6)C5(C)C)cn4)CC3)cc1)=N[C@@H](Cc1ncco1)c1nnc(C)n1-2 [Compound I-554]
< 500 | – | Cc1sc2c(c1C)C(c1ccc(N3CC(C4CCN(c5cnc(C(=O)N[C@H]6C(C)(C)[C@H](Oc7ccc(C#N)c(Cl)c7)C6(C)C)cn5)CC4)C3)cc1)=N[C@@H](Cc1ncco1)c1nnc(C)n1-2 [Compound I-558]
500 to 1500 | – | Cc1sc2c(c1C)C(c1ccc(C#CC3CC(Cc4ncc(C(=O)N[C@H]5C(C)(C)[C@H](Oc6ccc(C#N)c(Cl)c6)C5(C)C)cn4)C3)cc1)=NC(Cc1ncco1)c1nnc(C)n1-2 (stereo partly drawn) [Compound I-560]
